Marks after values point to notes of the source that are not given here.
Assays:
sea urchin embryos = experiment: Phenotypic sea urchin embryo assay; assay type: in vivo; conditions: X in M-β-CD
From the text: (§1) Hemolytic activity and thrombogenicity are the primary parameters for evaluating the safety of medical formulations. The phenotypic sea urchin embryo assay developed by colleagues is a visual way to study the toxicity of formulations in vivo. The sea urchin and human genomes contain more than 7000 common genes, including orthologs associated with a number of human diseases. Therefore, sea urchins can be considered as a reliable and versatile model organism for studying the safety of new and existing cytotoxic formulations in vivo. Table 5 presents data on the % of erythrocyte hemolysis, the degree of whole blood thrombosis of apiol-PPh3 and analogues, and data of phenotypic sea urchin embryo assay. Thus, the non-toxicity of PPh3 derivatives of allylbenzenes for normal non-cancer cells, as well as the selectivity of action against cancer cells, is shown. The selectivity of cytotoxic action against cancer cells in comparison with normal cells can be explained by the fact that the PPh3- cation provides selective accumulation and reduction in the mitochondrial membrane potential of the transformed cancer cells. Cyclodextrin (M-β-CD) and heparin are non-toxic (and approved by the FDA for intravenous application).
Adult sea urchins, Paracentrotus lividus L. (Echinidae), were collected from the Mediterranean Sea on the Cyprus coast and kept in an aerated seawater tank and were used to study the cleavage alteration of Apiol-PPh3 and analogues. Experiments with sea urchin embryos comply with the requirements of biological ethics.

[1] = Dissociation constants of complexes with heparin by FTIR spectroscopy (Hill fit); assay type: physicochemical; conditions: calculated per one unit of heparin C12H19NO20S3, PBS
From the text: FTIR spectroscopy provides valuable data on the interaction of molecules, including those applicable to characterize the non-covalent complexes of apiol-PPh3 (and analogues) with cyclodextrins and heparin. In the FTIR spectra of apiol-PPh3 and analogues (Figure 3a), one characteristic is the bands of valence oscillations of the bonds C=C of the aromatic system (1450–1650 cm^−1) overlapping with the bands of deformation oscillations C-H (1400–1500 cm^−1). The intensity of these peaks increases with the formation of non-covalent complexes of apiol-PPh3 and its analogues with cyclodextrins and heparin due to the transition of the solid phase into solution. Linear fitting of the intensity of peaks in the FTIR spectra on the cyclodextrin or heparin concentration (Section 2.3) in Hill coordinates allows determining the dissociation constants of the complexes (Table 2). The interactions of triphenylphosphine derivatives of allylbenzenes with γ-CD is rather weak (Kd 10 mM values). In the case of M-β-CD, the dissociation constants reach millimolar values, which is sufficient to obtain soluble forms of adjuvants (Table 2). Thus, the β-cyclodextrin derivatives are more suitable in terms of size for inclusion of the adjuvants studied. […] Comparing the values of the dissociation constants of alkylbenzenes and PPh3-derivatives complexes with cyclodextrins, we observed that these Kd values are close, which means that it is the allylbenzene-fragment (of apiol-PPh3) that plunges into the cyclodextrin cavity, and the triphenylphosphine radical looks outward (Figure 3b), which would provide the implementation of mitochondrial targeting of the developed formulations.
Non-covalent complexes of apiol, apiol-PPh3 and analogues with cyclodextrins (with different molar ratios) and heparin (15 kDa, 1:1 w/w) were obtained by adding solutions of cyclodextrins (100 mg/mL) or heparin (20 mg/mL) in PBS to apiol or apiol-PPh3 (or analogues) samples (2–3 mg). The excess of CDs or heparin was varied from 0.04 to 10 mol/mol. Then, mixtures were incubated for 1 h at 40 °C. Cyclodextrin or heparin are necessary for the solubilization of extremely poorly soluble compounds.
The ATR-FTIR spectra of samples (Section 3.3) were acquired using a Bruker Tensor 27 spectrometer equipped with a liquid N2 cooled MCT (mercury cadmium telluride) detector. Samples were placed in a thermostatic cell BioATR-II with ZnSe ATR element (Bruker, Germany). FTIR spectra were recorded from 850 to 4000 cm^−1 with 1 cm^−1 spectral resolution; 50 scans were accumulated and averaged. Spectral data were processed using the Bruker software system Opus 8.2.28 (Bruker, Germany). The spectrum of cyclodextrin or heparin in the corresponding concentration was subtracted from the spectra of the complexes. […]

A549 cells = experiment: MTT assay, synergy of adjuvants with paclitaxel against A549; assay type: cell-based, human; conditions: X − M-β-CD, SC = CV(paclitaxel) × CV(adjuvant)/CV(combo)
From the text: Apparently PPh3 derivatives effectively penetrate into cancer cells along a potential gradient, inhibit efflux proteins and mitochondrial enzymes, causing the apoptosis of cancer cells, with IC50 values being lower by two orders of magnitude than the corresponding allylbenzene (Table 3). […] For allylbenzenes, a synergy close to additivity (the cytostatic effect of adjuvant + paclitaxel is almost equal to the sum of their individual contributions) was observed; for PPh3 derivatives, a pronounced increase in the action of paclitaxel is characteristic (the cytostatic effect of adjuvant + paclitaxel is much higher (>) than the sum of their individual contributions). For apiol-PPh3, the most pronounced effect of increasing the activity of paclitaxel was observed (Figure 4b).
Figure 4 Viability of A549 cells in the presence of paclitaxel and allylbenzenes’ PPh3 derivatives in the form of complexes with M-β-CD (1:5 mol/mol). MTT assay. (a) Dose–effect graphs. (b) MTT assay results for 100 nM paclitaxel alone and combined with allylbenzenes’ PPh3 derivatives in the form of complexes with M-β-CD (1:5 mol/mol).
The cytotoxic activity of paclitaxel, Apiol-PPh3 and analogues was determined using an MTT test. Paclitaxel-adjuvant synergism coefficients (SC) were calculated as CV (paclitaxel) × CV (alone adjuvant)/CV (combo paclitaxel + adjuvant), where CV represents the cell viability. The synergy coefficient can be interpreted as strong synergy (SC > 2), synergy (2 > SC > 1.2), indifference/additivity (1.2 > SC > 0.8), antagonism (0.8 > SC > 0.5), and inhibition (SC < 0.5), as described earlier.

whole blood = experiment: Thrombogenicity (whole blood thrombosis); conditions: 0.1 mg/mL
From the text: as §1
(§2) The hemolytic activity and thrombogenicity of apiol-PPh3 and analogues were studied using an earlier published technique.

erythrocytes = experiment: Hemolytic activity; assay type: cell-based; conditions: 0.1 mg/mL
From the text: as §1, §2

| Concentration Causing Changes in Sea Urchin Embryos (sea urchin embryos) | −lg Kd (X − Heparin) [1] | Thrombosis Index (whole blood) | SMILES | Synergy Coefficients of Adjuvants and PPh3–Adjuvants with Paclitaxel (A549 cells) | Hemolysis Index (erythrocytes) |
| --- | --- | --- | --- | --- | --- |
| >4 *** μM | 3.2 ± 0.1 | 0.7 ± 0.2% | COc1cc(CCC[P+](c2ccccc2)(c2ccccc2)c2ccccc2)c(OC)c(OC)c1OC [Allyltetramethoxybenzene-PPh3] | 1.3 ± 0.1 | 0.7 ± 0.1% |
| >4 *** μM | 3.0 ± 0.3 | 1.0 ± 0.1% | COc1c(CCC[P+](c2ccccc2)(c2ccccc2)c2ccccc2)cc2c(c1OC)OCO2 [Dillapiol-PPh3] | 1.5 ± 0.1 | 0.9 ± 0.2% |
| >4 *** μM | 2.6 ± 0.2 | 1.5 ± 0.2% | COc1cc(CCC[P+](c2ccccc2)(c2ccccc2)c2ccccc2)cc2c1OCO2 [Myristicin-PPh3] | 1.8 ± 0.3 | 0.5 ± 0.1% |

| SMILES | Concentration Causing Changes in Sea Urchin Embryos (sea urchin embryos) | −lg Kd (X − Heparin) [1] | Thrombosis Index (whole blood) | Synergy Coefficients of Adjuvants and PPh3–Adjuvants with Paclitaxel (A549 cells) | Hemolysis Index (erythrocytes) |
| --- | --- | --- | --- | --- | --- |
| COc1cc(CCC[P+](c2ccccc2)(c2ccccc2)c2ccccc2)c(OC)c2c1OCO2 [Apiol-PPh3] | >4 *** μM | 2.7 ± 0.2 | 1.1 ± 0.2% | 2.2 ± 0.2 | 0.8 ± 0.2% |

From paper PMC10747112, “Triphenylphosphine Derivatives of Allylbenzenes Express Antitumor and Adjuvant Activity When Solubilized with Cyclodextrin-Based Formulations” (Pharmaceuticals, 2023)
